The data set deals with CCRIS mutagenicity, Ames/micronucleus/aberration tests. Description: CCRIS mutagenicity studies.
The mark [1] stands for this setting: Test System: AMES SALMONELLA TYPHIMURIUM, Strain/Indicator: TA98, Metabolic Activation: NONE, Method: PREINCUBATION
The mark [2] stands for this setting: Test System: AMES SALMONELLA TYPHIMURIUM, Strain/Indicator: TA100, Metabolic Activation: NONE, Method: PREINCUBATION
Where [3] appears, read: Test System: AMES SALMONELLA TYPHIMURIUM, Strain/Indicator: TA100, Metabolic Activation: NONE, Method: STANDARD PLATE.
[4] abbreviates: Test System: AMES SALMONELLA TYPHIMURIUM, Strain/Indicator: TA100, Metabolic Activation: RAT, LIVER, S-9, AROCLOR 1254, Method: STANDARD PLATE.

Each structure is given as a SMILES string. Calls of active or inactive are those of the source. How the calls were made is not given here.

For the molecule `O=[N+]([O-])c1cccc2oc3ccccc3c12`, the mutagenic call (Test System: AMES SALMONELLA TYPHIMURIUM, Strain/Indicator: TA98(1,8-DNP6), Metabolic Activation: NONE, Method: PREINCUBATION) was “inactive; negative”; the mutagenic call (Test System: AMES SALMONELLA TYPHIMURIUM, Strain/Indicator: TA98(1,8-DNP6), Metabolic Activation: NONE, Method: SUSPENSION) is “inactive; negative”; the mutagenic call (Test System: AMES SALMONELLA TYPHIMURIUM, Strain/Indicator: TA98(1,8-DNP6), Metabolic Activation: RAT, LIVER, S-9, PCB (5%), Method: PREINCUBATION) was “inactive; negative”; the mutagenic call (Test System: AMES SALMONELLA TYPHIMURIUM, Strain/Indicator: TA98(NR), Metabolic Activation: NONE, Method: PREINCUBATION) is “inactive; negative”; the mutagenic call (Test System: AMES SALMONELLA TYPHIMURIUM, Strain/Indicator: TA98(NR), Metabolic Activation: NONE, Method: SUSPENSION) is “inactive; negative”; the mutagenic call (Test System: AMES SALMONELLA TYPHIMURIUM, Strain/Indicator: TA98(NR), Metabolic Activation: RAT, LIVER, S-9 (10%), Method: PREINCUBATION) was “inactive; negative”. In addition, the mutagenic call was “active; positive” (Test System: AMES SALMONELLA TYPHIMURIUM, Strain/Indicator: TA98(NR), Metabolic Activation: RAT, LIVER, S-9, 3-METHYLCHOLANTHRENE (10%), Method: PREINCUBATION); “inactive; negative” (Test System: AMES SALMONELLA TYPHIMURIUM, Strain/Indicator: TA98(NR), Metabolic Activation: RAT, LIVER, S-9, BETA-NAPHTHOFLAVONE (10%), Method: PREINCUBATION); “inactive; negative” (Test System: AMES SALMONELLA TYPHIMURIUM, Strain/Indicator: TA98(NR), Metabolic Activation: RAT, LIVER, S-9, PCB (5%), Method: PREINCUBATION); “inactive; negative” (Test System: AMES SALMONELLA TYPHIMURIUM, Strain/Indicator: TA98(NR), Metabolic Activation: RAT, LIVER, S-9, PCB (10%), Method: PREINCUBATION); “inactive; negative” (Test System: AMES SALMONELLA TYPHIMURIUM, Strain/Indicator: TA98(NR), Metabolic Activation: RAT, LIVER, S-9, PHENOBARBITAL (10%), Method: PREINCUBATION); “inactive; negative” under setting [1]. Moreover, the mutagenic call (Test System: AMES SALMONELLA TYPHIMURIUM, Strain/Indicator: TA98, Metabolic Activation: NONE, Method: SUSPENSION) was “inactive; negative”; the mutagenic call (Test System: AMES SALMONELLA TYPHIMURIUM, Strain/Indicator: TA98, Metabolic Activation: RAT, LIVER, S-9, PCB (5%), Method: PREINCUBATION) is “inactive; negative”; the mutagenic call (Test System: AMES SALMONELLA TYPHIMURIUM, Strain/Indicator: TA98, Metabolic Activation: RAT, LIVER, S-9, PCB, Method: SUSPENSION) was “inactive; negative”; the mutagenic call under setting [2] is “inactive; negative”; the mutagenic call (Test System: AMES SALMONELLA TYPHIMURIUM, Strain/Indicator: TA100, Metabolic Activation: NONE, Method: SUSPENSION) is “inactive; negative”; the mutagenic call (Test System: AMES SALMONELLA TYPHIMURIUM, Strain/Indicator: TA100, Metabolic Activation: RAT, LIVER, S-9, PCB (5%), Method: PREINCUBATION) was “inactive; negative”. The mutagenic call (Test System: AMES SALMONELLA TYPHIMURIUM, Strain/Indicator: TA100, Metabolic Activation: RAT, LIVER, S-9, PCB, Method: SUSPENSION) is “inactive; negative”.
As for `CC(C)CC(=O)Nc1snc2ccccc12`, the mutagenic call under setting [3] is “inactive; negative”; the mutagenic call (Test System: AMES SALMONELLA TYPHIMURIUM, Strain/Indicator: TA100, Metabolic Activation: S-9, Method: STANDARD PLATE) is “inactive; negative”; the mutagenic call (Test System: AMES SALMONELLA TYPHIMURIUM, Strain/Indicator: TA1537, Metabolic Activation: NONE, Method: STANDARD PLATE) was “inactive; negative”; the mutagenic call (Test System: AMES SALMONELLA TYPHIMURIUM, Strain/Indicator: TA1537, Metabolic Activation: S-9, Method: STANDARD PLATE) was “inactive; negative”.
For `NNc1nc(-c2ccc([N+](=O)[O-])cc2)cs1`, the mutagenic call (Test System: AMES SALMONELLA TYPHIMURIUM, Strain/Indicator: TA98, Metabolic Activation: RAT, LIVER, S-9, KC500 OR PHENOBARBITAL, Method: LIQUID SUSPENSION) is “active; positive” and the mutagenic call (Test System: AMES SALMONELLA TYPHIMURIUM, Strain/Indicator: TA100, Metabolic Activation: RAT, LIVER, S-9, KC500 OR PHENOBARBITAL, Method: LIQUID SUSPENSION) was “active; positive”.
As to `CCSC(=O)N(CC)C1CCCCC1`, the mutagenic call is “inactive; negative” (End Point: In vitro chromosomal aberrations, Test System: Human lymphocytes, Metabolic Activation: None); “inactive; negative” (End Point: In vitro chromosomal aberrations, Test System: Human lymphocytes, Metabolic Activation: S-9 (No additional details provided in source)); “inactive; negative” (End Point: In vivo micronucleus, Test System: Bone marrow, Species: Mouse, Strain/Sex: CD/Female, Route: Oral); “inactive; negative” (End Point: In vivo micronucleus, Test System: Bone marrow, Species: Mouse, Strain/Sex: CD/Male, Route: Oral).
Turning to `COc1c2c(cc3oc4c(CCC(C)(C)O)ccc(O)c4c(=O)c13)O[C@H]1OC=C[C@@H]21`, the mutagenic call by setting is: (Test System: AMES SALMONELLA TYPHIMURIUM, Strain/Indicator: TA98, Metabolic Activation: NONE, Method: STANDARD PLATE) “active; positive”; (Test System: AMES SALMONELLA TYPHIMURIUM, Strain/Indicator: TA98, Metabolic Activation: RAT, LIVER, S-9, AROCLOR 1254, Method: STANDARD PLATE) “active; positive”; under setting [3], “inactive; negative”; under setting [4], “active; positive”.
On to `c1ccc2cc3c(cc2c1)-c1cccc2cccc-3c12`, for which the mutagenic call runs as follows: (Test System: AMES SALMONELLA TYPHIMURIUM, Strain/Indicator: TA98, Metabolic Activation: HAMSTER, LIVER, S-9, AROCLOR 1254 (30%), Method: PREINCUBATION) “active; positive”; under setting [1], “inactive; negative”; (Test System: AMES SALMONELLA TYPHIMURIUM, Strain/Indicator: TA98, Metabolic Activation: RAT, LIVER, S-9, AROCLOR 1254 (30%), Method: PREINCUBATION) “active; positive”; (Test System: AMES SALMONELLA TYPHIMURIUM, Strain/Indicator: TA100, Metabolic Activation: HAMSTER, LIVER, S-9, AROCLOR 1254 (30%), Method: PREINCUBATION) “active; positive”; under setting [2], “inactive; negative”; (Test System: AMES SALMONELLA TYPHIMURIUM, Strain/Indicator: TA100, Metabolic Activation: RAT, LIVER, S-9, AROCLOR 1254) “active; positive”. For the same molecule, the mutagenic call is “active; positive” (Test System: AMES SALMONELLA TYPHIMURIUM, Strain/Indicator: TA100, Metabolic Activation: RAT, LIVER, S-9, AROCLOR 1254 (30%), Method: PREINCUBATION) and “active; positive” under setting [4].
